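Protocol summary: plate cells (96-well), add compound at 5 concentrations, incubate 48 h, interpolate endpoints linearly. Here, GI50 denotes the concentration required for 50% inhibition of growth.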 The source made the active and inactive calls. Rule as the data show it: active = GI50 up to about 1.1 µM and inactive = higher. Where a SMILES comes first, the peptide text is derived from it. [ ]: non-standard residue; d: D form. The star is where a group is joined. Cbz = O=C(OCc1ccccc1)*; Aib = CC(C)(N)C(=O)O; OBn = c1ccc(CO*)cc1
How the values were obtained:
Experiment in all cases: inhibition of tumour cell growth, NCI panel, 48 h
[1] = system: HOP-92
[2] = system: EKVX
[3] = system: UACC-62
[4] = system: OVCAR-4
[5] = system: KM12
[6] = system: ACHN
[7] = system: 786-0
[8] = system: PC-3
[9] = system: DU-145
[10] = system: HL-60
[11] = system: RXF 393
[12] = system: SK-MEL-2
[13] = system: M14
[14] = system: SW-620
[15] = system: COLO 205
[16] = system: NCI-H460
[17] = system: OVCAR-5
[18] = system: SNB-19
[19] = system: NCI/ADR-RES
[20] = system: OVCAR-3

Measured: GI50

COc1ccc2c(C=O)c3n(c(=O)c2c1OC)CCc1cc2c(cc1-3)OCO2
inactive: [1] 10.9 µM | [2] 35.6 µM | [3] 21 µM | [4] > 100 µM | [5] 27.9 µM | [6] 69.2 µM | [7] 90.2 µM | [8] 15.1 µM | [9] 78.3 µM | [10] 29.7 µM | [11] 2.91 µM | [12] 25.9 µM | [13] 18.6 µM | [14] 38.6 µM | [15] 15.9 µM | [16] 53.6 µM | [17] > 100 µM | [18] 76.4 µM | [19] 18.6 µM | [20] 80.5 µM

CC(NC(=O)C(C)(C)NC(=O)C(CC(=O)OCc1ccccc1)NC(=O)OCc1ccccc1)C(N)=O (stereo not given) (Cbz-Asp(OBn)-[Aib]-Ala-NH2; configuration not given here)
inactive: [1] > 100 µM | [2] > 100 µM | [3] > 100 µM | [4] > 100 µM | [5] > 100 µM | [6] > 100 µM | [7] > 100 µM | [8] > 100 µM | [9] > 100 µM | [10] > 100 µM | [11] > 100 µM | [12] > 100 µM | [13] > 100 µM | [14] > 100 µM | [15] > 100 µM | [16] > 100 µM | [17] > 100 µM | [18] > 100 µM | [19] > 100 µM | [20] > 100 µM

O=C(O)CCc1ccc(-c2ccccc2)[nH]1
inactive: [1] > 100 µM | [2] > 100 µM | [3] > 100 µM | [4] > 100 µM | [5] > 100 µM | [6] > 100 µM | [7] > 100 µM | [8] > 100 µM | [9] > 100 µM | [10] > 100 µM | [11] > 100 µM | [12] > 100 µM | [13] > 100 µM | [14] > 100 µM | [15] > 100 µM | [16] > 100 µM | [17] > 100 µM | [18] > 100 µM | [19] > 100 µM | [20] > 100 µM

COP(C)(=O)C(Cc1c[nH]c2ccccc12)NC(=O)OCc1ccccc1 (stereo not given)
inactive: [1] > 100 µM | [2] > 100 µM | [3] > 100 µM | [4] > 100 µM | [5] > 100 µM | [6] > 100 µM | [7] > 100 µM | [8] > 100 µM | [9] > 100 µM | [10] > 100 µM | [11] > 100 µM | [12] > 100 µM | [13] > 100 µM | [14] > 100 µM | [15] > 100 µM | [16] > 100 µM | [17] > 100 µM | [18] > 100 µM | [19] > 100 µM | [20] > 100 µM

CN(C)CCCn1c(Cn2nc3ccccc3n2)nc2cc(C(F)(F)F)ccc21
inactive: [1] 8.71 µM | [2] 28.3 µM | [3] 19.2 µM | [4] 33.4 µM | [5] 22.8 µM | [6] 41.5 µM | [7] 19.3 µM | [8] 31.6 µM | [9] 29.7 µM | [10] 1.69 µM | [11] 22.1 µM | [12] 19.4 µM | [13] 15.3 µM | [14] 34.2 µM | [15] 15.3 µM | [16] 26.4 µM | [17] > 100 µM | [18] 50.7 µM | [19] 23.4 µM | [20] 36.7 µM

Reference: ChEMBL document CHEMBL1201862, “PubChem BioAssay data set” (2004)
